These results are taken from publication PMC12429925 (Molecules, 2025).

Where two headings read alike, the source gives them in different places.

Holding throughout (assay): cells
Common to all, as to assay type: cell-based

In test [1] the test system is A2780cis (ovarian carcinoma) cells. The conditions noted are these: Homo sapiens.
Test [2] deals with A2780 (human ovarian carcinoma) cells. As to conditions: for IC50: Homo sapiens.
Test [3] deals with MCF7 (breast carcinoma) cells. As to conditions: Homo sapiens.
Test [4] relates to HT29 (colorectal carcinoma) cells. As to conditions: Homo sapiens.
The subject of test [5] is panel of five different human tumor cell lines. The conditions noted are these: read-out: IC50 range over tumor cell lines.
In test [6] the test system is CCD18Co (non-malignant human fibroblasts). The conditions noted are these: CCD-18Co.
The subject of test [7] is A549 (lung carcinoma) cells. As to conditions: Homo sapiens.
Setting [8] is: A2780, 72 h, read-out: IC50 A2780.
[9] abbreviates: MCF7, 72 h, read-out: IC50 MCF7.
Setting [10] is: HT-29, 72 h, read-out: IC50 HT29.
Where [11] appears, read: A549, 72 h, read-out: IC50 A549.

For the compound `COc1cc(CNC(=O)CCCCC=CC(C)C)ccc1O` [A, 8-methyl-N-vanillyl-6-nonenamide, reference compound], the IC50 in test [1] (72 h, read-out: IC50 A2780cis) is 84.3 µM; in test [1] (read-out: IC50 A2780cis, converted into μg/mL), 25.8 µg/mL; in test [2] (setting [8]), 15.9 µM; in test [2] (A2780, read-out: IC50 A2780, converted into μg/mL) it was roughly 4.86 µg/mL; in test [3] (setting [9]), 42.1 µM; in test [3] (MCF7, read-out: IC50 MCF7, converted into μg/mL), 12.9 µg/mL. The IC50 in test [4] (setting [10]) is 51 µM; in test [4] (HT-29, read-out: IC50 HT29, converted into μg/mL), 15.6 µg/mL; in test [5] it was 15 to 84 µM; in test [6] (72 h, read-out: IC50 CCD18Co) it was greater than 100 µM; in test [6] (read-out: IC50 CCD18Co, converted into μg/mL) it was greater than 30.5 µg/mL; in test [7] (setting [11]), 70.3 µM. In addition, the IC50 in test [7] (A549, read-out: IC50 A549, converted into μg/mL) came to 21.5 µg/mL. Moreover, the “Selectivity index SI (IC50 CCD18Co/IC50 A2780)” value in test [2] is reported as greater than 6.3.
For the compound `CCCCCCCCCCCC(=O)NCc1ccc(O)c(OC)c1` [Compound 15, N-[(4-Hydroxy-3-methoxy)benzyl]dodecanamide], the IC50 in test [2] (setting [8]) was less than 10 µM.
Still for that read-out and setting: in the case of `CCCCCCCCCCCCC(=O)NCc1ccc(O)c(OC)c1` [Compound 17, N-[(4-Hydroxy-3-methoxy)benzyl]tridecanamide] it was less than 10 µM.
Take `CCCCCCCCCCCCCC(=O)NCc1ccc(O)c(OC)c1` [Compound 19, N-[(4-Hydroxy-3-methoxy)benzyl]tetradecanamide]: the IC50 in test [2] (setting [8]) was less than 10 µM.
On the same count and under the same terms, the value for `CCCCCCCCCCCCCCC(=O)NCc1ccc(O)c(OC)c1` [Compound 21, N-[(4-Hydroxy-3-methoxy)benzyl]pentadecanamide] was less than 10 µM.
Take `CCCCCCCCCCCCCCCCC(=O)NCc1ccc(O)c(OC)c1` [Compound 25, N-[(4-Hydroxy-3-methoxy)benzyl]heptadecanamide]: the IC50 is greater than 100 µM in test [1] (72 h, read-out: IC50 A2780cis); 38.4 µM in test [3] (setting [9]); 78.5 µM in test [4] (setting [10]); greater than 100 µM in test [6] (72 h, read-out: IC50 CCD18Co); 60.5 µM in test [7] (setting [11]).
Regarding `CCCCCCCCCCCCCCCCCC(=O)NCc1ccc(O)c(OC)c1` [Compound 27, N-[(4-Hydroxy-3-methoxy)benzyl]octadecanamide], the IC50 in test [1] (72 h, read-out: IC50 A2780cis) was 76.4 µM; in test [3] (setting [9]), 32.6 µM; in test [4] (setting [10]), 42.4 µM; in test [6] (72 h, read-out: IC50 CCD18Co), greater than 100 µM; in test [7] (setting [11]), 50.3 µM. Also, in test [2], the “Selectivity index SI (IC50 CCD18Co/IC50 A2780)” value was greater than 29.0.
For the compound `CCCCCCCCCCCCCCCCCCC(=O)NCc1ccc(O)c(OC)c1` [Compound 29, N-[(4-Hydroxy-3-methoxy)benzyl]nonadecanamide], the IC50 in test [1] (72 h, read-out: IC50 A2780cis) is 59.5 µM; in test [3] (setting [9]) it was 15.9 µM; in test [4] (setting [10]), 68.4 µM; in test [6] (72 h, read-out: IC50 CCD18Co) it was greater than 100 µM; in test [7] (setting [11]), 55.3 µM.
